The structures appear in SMILES notation.

From patent US20250249025A1, “DRUG DELIVERY CARRIER UTILIZING PROPERTY OF D-ALLOSE BEING UPTAKEN BY CANCER CELL, DRUG DELIVERY METHOD, AND COMPOSITION FOR TREATING RENAL CELL CARCINOMA” (NATIONAL UNIVERSITY CORPORATION KAGAWA UNIVERSITY, priority 2019, published 2025) come the findings set out here.

Data set [1] in a line: Body weight in renal cell carcinoma xenograft mouse models. Format: in vivo, mice. Conditions: Control, 100 mg/kg and 400 mg/kg intraperitoneal once a day for 5 weeks; Mann-Whitney U test; FIG. 6. Here is the method: (§1) The day when the tumor size of the renal cell carcinoma xenograft mouse models became 200 mm^3 or more was called day 0 and the intraperitoneal injection of a D-allose-containing solution was started from day 1. The solution injected is 0.4 mL of physiological saline or a solution obtained by dissolving 100 mg/kg or 400 mg/kg of D-allose in 0.4 mL physiological saline. The resulting solution was intraperitoneally injected into three groups of mice (Control, 100 mg/kg of D-allose, and 400 mg/kg of D-allose) once a day for 5 weeks in total. The body weight of the mice and the long and short diameters of the tumor were measured over time twice a week. It is to be noted that the tumor volume was obtained as a product of long diameter×short diameter×short diameter of the tumor×0.5. On day 35 after the intraperitoneal injection was started, the tumor as well as the liver and kidney were excised from the mice and provided for the experiment performed thereafter.

Data set [2] concerns human carcinoma cell lines. Format: cell-based. The following applies: 48 h, 10 mM. Here is the method:
(§2) An uptake amount of a rare sugar, which had been added to a medium, into carcinoma cells was analyzed using the cell lines of three types of cancers. As the rare sugar, four kinds, that is, D-allose, D-allulose (D-psicose), L-allulose (L-psicose), and allitol were used, while D-glucose and fructose were used as a monosaccharide which was not a rare sugar.
(§3) Cells of each of the cell lines were cultured in RPMI-1640 media and during culturing, six sugars were each added to the resulting media and cultured. After culturing, an amount of each sugar taken up into the cells was analyzed. The medium to which no sugar was added during culturing was used as a control.
Used were human bladder carcinoma cell lines (RT112, 253), and J82), human prostatic carcinoma cell lines (LNCa, Du145, and PC-3), and human renal cell carcinoma cell lines (ACHN, Caki-I, and Caki-II). […]
After culturing for 48 hours, the attached human carcinoma cells were mechanically separated and collected in a Spitz tube together with the culture solution and floating cells. […] From the area thus obtained, the sugar content in the cells was determined using a calibration curve. With respect to the ketose, two peaks were found after labeling with ABEE so that the sugar content in the cells was determined from the calibration curves of both peaks.

Data set [3] has as its system human bladder carcinoma cell line RT112. Nature of the data set: Rare sugar uptake experiment, sugar content in disrupted cell suspension of RT112. Format: cell-based. Here is the method:
as §2, §3
(§4) Used were human bladder carcinoma cell lines (RT112, 253), and J82), human prostatic carcinoma cell lines (LNCa, Du145, and PC-3), and human renal cell carcinoma cell lines (ACHN, Caki-I, and Caki-II).
(§5) After cells were cultured in RPMI-1640 (2000 mg D-glucose/L) media, the above monosaccharides and rare sugars were added to the resulting media, respectively. Described specifically, they were following seven combinations: RPMI-1640 alone (control), RPMI-1640+D-glucose, RPMI-1640+L-allulose, RPMI-1640+D-allulose, RPMI-1640+D-fructose, RPMI-1640+D-allose, and RPMI-1640+D-allitol. The final concentration of the sugar in the medium was adjusted to 10 mM and no sugar was added in the control.
(§6) Five-ml portions of a 3.0×10^4 cells/ml cell suspension prepared using RPMI-1640 were seeded in dishes having a diameter of 6 cm (1.5×10^5 cells/dish) and cultured for 24 hours in the RPMI-1640 medium containing 2000 mg/l of D-glucose as a nutrient source. Twenty-four hours later, the media were changed to the culture solutions containing the monosaccharides and rare sugars described above in 2), respectively, followed by culturing for 48 hours.
(§7) After culturing for 48 hours, the attached human carcinoma cells were mechanically separated and collected in a Spitz tube together with the culture solution and floating cells. After the supernatant formed by centrifugation (4° C., 1200 rpm, and 5 minutes) was removed to obtain cell pellets alone, 5 ml of a phosphate buffer physiological saline (PBS) was added for the purpose of washing to obtain a cell suspension of the cell pellets. A gain, the resulting cell suspension was centrifuged at 4° C. and 1200 rpm for 5 minutes and the supernatant was removed. To the cell pellets after washing was added 1 ml of pure water to suspend them therein. Ultrasonic disruption (intensity: 40%, 30 seconds) was then performed and the monosaccharide in the disrupted cell suspension was labeled with ABEE, followed by analysis by HPLC. From the area thus obtained, the sugar content in the cells was determined using a calibration curve. With respect to the ketose, two peaks were found after labeling with ABEE so that the sugar content in the cells was determined from the calibration curves of both peaks.

Data set [4] concerns human bladder carcinoma cell line J82. Nature of the data set: Rare sugar uptake experiment, sugar content in disrupted cell suspension of J82. Format: cell-based. Here is the method: as §2, §3, §4, §5, §6, §7
Data set [5] relates to human prostate carcinoma cell line LNCa. The experiment in a line: Rare sugar uptake experiment, sugar content in disrupted cell suspension of LNCa. Format: cell-based. Here is the method: as §2, §3, §4, §5, §6, §7
Another data set has as its system kidney tissue. Nature of the data set: Kidney tissue histology in renal cell carcinoma xenograft mouse models. Format: in vivo. Conditions: xenograft mice, intraperitoneal once a day, day 35; diagnosis by a medical specialist in pathology; FIG. 7. Here is the method: as §1, with “On day 35 after the intraperitoneal injection was started, the tumor as well as the liver and kidney were excised from the mice and provided for the experiment performed thereafter.” left out
(§8) The tissue of the excised tumor, kidney, and liver was fixed with a 4% paraformaldehyde phosphate buffer, embedded with paraffin, and sliced into a 4-μm thick section. The resulting sliced section was stained with hematoxylin and eosin and evaluated by a medical specialist in pathology. The influence of D-allose on the tumor tissue was evaluated by a necrosis area (%) and an image of the number of nuclear fissions (Cells/HPF). It is to be noted that the necrosis area was measured using an image recording software Nikon NIS—Elements D and figures after the decimal point were omitted. […]

Data set [6] concerns human renal cell carcinoma cell line Caki-II. The experiment in a line: Rare sugar uptake experiment, sugar content in disrupted cell suspension of Caki-II. Format: cell-based. Here is the method:
as §2, §3, §4, §5, §6, §7

In data set [7] the test system is human renal cell carcinoma cell line ACHN. Nature of the data set: Rare sugar uptake experiment, sugar content in disrupted cell suspension of ACHN. Format: cell-based. Here is the method:
as §2, §3, §4, §5, §6, §7

The subject of another data set is liver tissue. Nature of the data set: Liver tissue histology in renal cell carcinoma xenograft mouse models. Format: in vivo. Conditions: xenograft mice, intraperitoneal once a day, day 35; diagnosis by a medical specialist in pathology; FIG. 8. Here is the method: as §1, with “On day 35 after the intraperitoneal injection was started, the tumor as well as the liver and kidney were excised from the mice and provided for the experiment performed thereafter.” left out
as §8

Take `O=C[C@H](O)[C@H](O)[C@H](O)[C@H](O)CO` [D-allose]: in data set [1], the “Mice weight, difference among three groups” value is listed as “No significant difference”. For the same molecule, the “Uptake into the cells” value in data set [2] is listed as “found only in one (PC-3) of three human prostate carcinoma cell lines”. Also, the “D-glucose content in cell” value in data set [3] (RT112, named sugar added to RPMI-1640 at 10 mM, 48 hours, HPLC after ABEE labeling) was found to be 9.7 µg; in data set [4] (J82, named sugar added to RPMI-1640 at 10 mM, 48 hours, HPLC after ABEE labeling) it was 11.2 µg; in data set [5] (LNCa, named sugar added to RPMI-1640 at 10 mM, 48 hours, HPLC after ABEE labeling), 11.2 µg; in data set [6] (Caki-II, named sugar added to RPMI-1640 at 10 mM, 48 hours, HPLC after ABEE labeling) it was 3.4 µg; in data set [7] (ACHN, named sugar added to RPMI-1640 at 10 mM, 48 hours, HPLC after ABEE labeling), 1.8 µg. Besides, the “Content in cell of the added sugar” value in data set [3] (human, 48 h, 10 mM) stood at 0.0 µg; in [4] (human, 48 h, 10 mM), 0.0 µg; in [5] (human, 48 h, 10 mM) it was 0.0 µg; in [6] (human, 48 h, 10 mM), 11.2 µg; in [7] (human, 48 h, 10 mM), 11.2 µg. Besides, the “Influence on the kidney tissue” value with kidney tissue is recorded as “No influence”. In addition, in the data set on liver tissue, the “Influence on the liver tissue” value is recorded as “No influence”.
